Measurements reported in US20040058948A1, “Mappicine analogs, methods of inhibiting retroviral reverse transcriptase and methods of treating retroviruses” (priority 2002, published 2004).

What was measured:
[1] = molecular target: RNase H activity of HIV reverse transcriptase (Human immunodeficiency virus type 1 group M subtype B, UniProt P04585); experiment: Fluorescence (FRET)-based RNase H activity assay of HIV reverse transcriptase; type: biochemical, HIV-1; parameters: final concentration of 2.5 nM of the p51/p66 RT heterodimer in the assay; made in house; conditions: 10 μM inhibitor concentration, activity with analog / without analog x 100
Procedure: Recently, a fluorescence-based assay to perform preliminary screens in search of HIV RNase H inhibitors has been developed. The assay, which is carried out in 96-well microplates and is adaptable to robotics, is the first high-throughput screen for RNase H and is described in further detail in the Experimental section. HIV-1 RT and human RNase H were cloned, and thus comparative analysis of inhibitor action could be conducted simultaneously.
The assay for RNase H activity of HIV reverse transcriptase was the fluorescence-based assay described in detail in the Experimental section and discussed in U.S. Provisional Patent Application Serial No. 60/318,359. Assays were carried out in the absence and in the presence of mappicine analogs (10 μM final concentration). The results are reported as % residual activity, which is the RNase H activity of the enzyme in the presence of the mappicine analog divided by the RNase H activity of the enzyme in the absence of the mappicine analog, multiplied by 100. Alternatively, the results are reported as % inhibition, which is calculated as the ratio of the RNase H activity of the enzyme in the presence of the mappicine analog to the enzyme activity in the absence of the mappicine analog, multiplied by 100, and then subtracting this number from 100.
Assay for Ribonuclease H Activity Based on Fluorescence Resonance Energy Transfer (FRET)
Preparation of the Fluorophore-RNA/Quencher-DNA Hybrid Duplex Substrate.
The RNA/DNA hybrid duplex substrate for use in the assay comprises an RNA oligonucleotide of sequence 5′-GAU CUG AGC CUG GGA GCU-3′, modified at the 3′-end with Aminolink-2 and derivatized with fluorescein isothiocyanate, to provide a modified RNA oligonucleotide of the sequence 5′-GAU CUG AGC CUG GGA GCU-fluorescein-3′, annealed to a complementary DNA oligonucleotide of the sequence 5′-AGC TCC CAG GCT CAG ATC-3′ modified at the 5′-end with Aminolink-2 and derivatized with the FRET acceptor DABCYL succinimidyl ester, to provide a modified DNA oligonucleotide of the sequence 5′-DABCYL-AGC TCC CAG GCT CAG ATC-3′.
To prepare the 3′-fluorescein-RNA/5′-DABCYL-DNA hybrid duplex substrate, a known amount of 3′-fluorescein-RNA was dissolved in 20 mM Tris buffer (pH 8.0, 37° C.) to provide a final concentration of 5 μM. Two equivalents of the 5′-DABCYL-DNA oligonucleotide were added, and the mixture was heated to 90° C. for 5 min and cooled slowly to room temperature to allow duplex formation. The positioning of the fluorescein donor at the 3′-end of the RNA oligonucleotide and the DABCYL acceptor at the 5′-end of the DNA oligonucleotide provides a very close proximity of the donor and acceptor that results in a very intense quenching of the fluorescein emission in the intact RNA/DNA hybrid duplex substrate due to the spectral overlap of the fluorescence emission of fluorescein with the absorption spectrum of DABCYL. In addition, DABCYL is non-fluorescent, and thus cannot contribute any light emission. Both of these factors result in a very low background and provide a high signal-to-noise in the assay measurements. The ratio of the donor fluorescence in the absence and in the presence of its quencher is approximately fifteen-fold.
Microplate Assay Protocol for the Measurement of RNase H Activity Using the RNA/DNA Hybrid Duplex Substrate.
Reaction assay mixtures contained 5 μl of a stock solution of 2.5 μM RNA/DNA hybrid duplex substrate added to 85 μl of assay buffer (50 mM Tris, pH 8.0, 37° C., containing 60 mM KCl and 2.5 mM MgCl2), prepared in the wells of a 96-well fluorescence microtiter plate, and warmed to 37° C. using the temperature control of the SpectraMax Gemini XS microplate spectrofluorometer (Molecular Devices). Reactions were started by the addition of 5 μl of a solution of recombinant HIV-1 reverse transcriptase (usually providing a final concentration of 2.5 nM of the p51/p66 RT heterodimer in the assay), and mixing using the automatic mixing function of the microplate spectrofluorometer. […]

[2] = molecular target: T1, RNA-dependent DNA polymerase activity of HIV reverse transcriptase (Human immunodeficiency virus type 1 group M subtype B, UniProt P04585); experiment: RNA-dependent DNA polymerase activity assay of HIV reverse transcriptase; type: biochemical, HIV-1; conditions: 10 μM inhibitor concentration, activity with analog / without analog x 100
T1 construct: made in house
Procedure: In separate, representative assays, mappicine analogs were tested for their ability to inhibit the RNA-dependent DNA polymerase activity of HIV reverse transcriptase and for their ability to inhibit the RNase H activity of HIV reverse transcriptase. The assay for RNA-dependent DNA polymerase activity is discussed in Borkow, G. et al., “Inhibition of the Ribonuclease H and DNA Polymerase Activities of HIV-1 Reverse Transcriptase by N-(4-tert-Butylbenzoyl)-2-hydroxy-1-naphthaldehyde Hydrazone,” Biochemistry 1997, 36, 3179-3185, a copy of which is attached hereto, and the disclosure of which is incorporated herein by reference. Assays were carried out in the absence and in the presence of mappicine analogs (10 μM final concentration). The results are reported as % residual activity, which is the RNA-dependent DNA polymerase activity of the enzyme in the presence of the mappicine analog divided by the RNA-dependent activity of the enzyme in the absence of the mappicine analog, multiplied by 100.

Compound	Residual activity (%) RNase H [1] [%]	Residual activity (%) Polymerase [2] [%]	Residual activity (%) RNase H ([1]; 10 µM) [%]	Residual activity (%) Polymerase ([2]; 10 µM) [%]
COc1ccc2nc3c(c([Si](C)(C)C(C)(C)C)c2c1)Cn1c-3cc(C(O)CCC2CCCCC2)c(C)c1=O (racemic) [4Dδ]	87	51	–	–
COc1ccc2nc3c(c([Si](C)(C)C(C)(C)C)c2c1)Cn1c-3cc(C(O)Cc2ccccc2)c(C)c1=O (racemic) [4Dε]	76	49	–	–
Cc1c(C(O)C(C)(C)C)cc2n(c1=O)Cc1c-2nc2ccccc2c1[Si](C)(C)C (racemic) [5Aβ]	77	103	–	–
Cc1c(C(O)CCC2CCCCC2)cc2n(c1=O)Cc1c-2nc2ccccc2c1[Si](C)(C)C (racemic) [5Aδ]	78	83	–	–
Cc1c(C(O)Cc2ccccc2)cc2n(c1=O)Cc1c-2nc2ccccc2c1[Si](C)(C)C (racemic) [5Aε]	93	54	–	–
Cc1c(C(O)C(C)(C)C)cc2n(c1=O)Cc1c-2nc2ccc(F)cc2c1[Si](C)(C)C (racemic) [5Bβ]	102	74	–	–
Cc1c(C(O)CCC2CCCCC2)cc2n(c1=O)Cc1c-2nc2ccc(F)cc2c1[Si](C)(C)C (racemic) [5Bδ]	103	78	–	–
Cc1ccc2nc3c(c([Si](C)(C)C)c2c1)Cn1c-3cc(C(O)C(C)(C)C)c(C)c1=O (racemic) [5Cβ]	80	72	–	–
Cc1ccc2nc3c(c([Si](C)(C)C)c2c1)Cn1c-3cc(C(O)CCC2CCCCC2)c(C)c1=O (racemic) [5Cδ]	103	41	–	–
Cc1ccc2nc3c(c([Si](C)(C)C)c2c1)Cn1c-3cc(C(O)Cc2ccccc2)c(C)c1=O (racemic) [5Cε]	93	87	–	–
CCC(O)c1cc2n(c(=O)c1C)Cc1c-2nc2ccc(OC)cc2c1[Si](C)(C)C (racemic) [5Dα]	78	88	–	–
COc1ccc2nc3c(c([Si](C)(C)C)c2c1)Cn1c-3cc(C(O)Cc2ccccc2)c(C)c1=O (racemic) [5Dε]	70	48	–	–
CCCCCCc1c2c(nc3ccccc13)-c1cc(C(O)CC)c(C)c(=O)n1C2 (racemic) [8Aα]	83	42	–	–
CCCCCCc1c2c(nc3ccccc13)-c1cc(C(O)Cc3ccccc3)c(C)c(=O)n1C2 (racemic) [8Aε]	71	58	–	–
CCCCCCc1c2c(nc3ccc(F)cc13)-c1cc(C(O)C(C)(C)C)c(C)c(=O)n1C2 (racemic) [8Bβ]	97	50	–	–
CCCCCCc1c2c(nc3ccc(F)cc13)-c1cc(C(O)Cc3ccccc3)c(C)c(=O)n1C2 (racemic) [8Bε]	84	92	–	–
CCCCCCc1c2c(nc3ccc(C)cc13)-c1cc(C(O)CC)c(C)c(=O)n1C2 (racemic) [8Cα]	65	84	–	–
CCCCCCc1c2c(nc3ccc(C)cc13)-c1cc(C(O)C(C)(C)C)c(C)c(=O)n1C2 (racemic) [8Cβ]	93	111	–	–

Compound	Residual activity (%) RNase H [1] [%]	Residual activity (%) Polymerase [2] [%]	Residual activity (%) RNase H ([1]; 10 µM) [%]	Residual activity (%) Polymerase ([2]; 10 µM) [%]
CCCCCCc1c2c(nc3ccc(C)cc13)-c1cc(C(O)Cc3ccccc3)c(C)c(=O)n1C2 (racemic) [8Cε]	76	76	–	–
CCCCCCc1c2c(nc3ccc(OC)cc13)-c1cc(C(O)CC)c(C)c(=O)n1C2 (racemic) [8Dα]	66	85	–	–
CCCCCCc1c2c(nc3ccc(OC)cc13)-c1cc(C(O)C(C)(C)C)c(C)c(=O)n1C2 (racemic) [8Dβ]	67	68	–	–
CCCCCCc1c2c(nc3ccc(OC)cc13)-c1cc(C(O)CCC3CCCCC3)c(C)c(=O)n1C2 (racemic) [8Dδ]	63	81	–	–
CCC(O)c1cc2n(c(=O)c1C)Cc1c-2nc2ccccc2c1[Si](C)(C)C (racemic) [AG 1M]	–	–	73	89
CCc1c2c(nc3ccccc13)-c1cc(C(O)CC)c(C)c(=O)n1C2 (racemic) [AG 4M]	74	100	–	–
CCC(=O)c1cc2n(c(=O)c1C)Cc1c-2nc2ccccc2c1-c1ccccc1 [3Aακ]	87	64	–	–
Cc1c(C(=O)C(C)(C)C)cc2n(c1=O)Cc1c-2nc2ccccc2c1-c1ccccc1 [3Aβκ]	94	64	–	–
Cc1c(C(=O)CCC2CCCCC2)cc2n(c1=O)Cc1c-2nc2ccccc2c1-c1ccccc1 [3Aδκ]	73	66	–	–
Cc1c(C(O)Cc2ccccc2)cc2n(c1=O)Cc1c-2nc2ccccc2c1-c1ccccc1 (stereo not drawn) [3Aε]	99	34	–	–
CCC(=O)c1cc2n(c(=O)c1C)Cc1c-2nc2ccc(F)cc2c1-c1ccccc1 [3Bακ]	94	100	–	–
Cc1c(C(=O)C(C)(C)C)cc2n(c1=O)Cc1c-2nc2ccc(F)cc2c1-c1ccccc1 [3Bβκ]	95	61	–	–
Cc1c(C(=O)CCC2CCCCC2)cc2n(c1=O)Cc1c-2nc2ccc(F)cc2c1-c1ccccc1 [3Bδκ]	93	59	–	–
CCC(=O)c1cc2n(c(=O)c1C)Cc1c-2nc2ccc(C)cc2c1-c1ccccc1 [3Cακ]	99	71	–	–
Cc1ccc2nc3c(c(-c4ccccc4)c2c1)Cn1c-3cc(C(=O)C(C)(C)C)c(C)c1=O [3Cβκ]	96	63	–	–
Cc1ccc2nc3c(c(-c4ccccc4)c2c1)Cn1c-3cc(C(O)CCC2CCCCC2)c(C)c1=O (stereo not drawn) [3Cδ]	93	74	–	–
Cc1ccc2nc3c(c(-c4ccccc4)c2c1)Cn1c-3cc(C(=O)CCC2CCCCC2)c(C)c1=O [3Cδκ]	93	65	–	–
CCC(=O)c1cc2n(c(=O)c1C)Cc1c-2nc2ccc(OC)cc2c1-c1ccccc1 [3Dακ]	104	76	–	–
